Measured values from ChEMBL document CHEMBL3431459, “Roche carnitine palmitoyltransferase modulator screening data (supplementary data associated with the publication CHEMBL2216752)”.
Values after ≈ are worked out from the molar mass of the structure shown.

Key:
[1] = molecular target: T1, Carnitine O-palmitoyltransferase 1, muscle isoform (Homo sapiens, UniProt Q92523); assay: SUPPLEMENTARY: Inhibition of Carnitine palmitoyltransferase 1, muscle isoform; design: species or system Muscle tissue
T1 sequence (Q92523 whole entry): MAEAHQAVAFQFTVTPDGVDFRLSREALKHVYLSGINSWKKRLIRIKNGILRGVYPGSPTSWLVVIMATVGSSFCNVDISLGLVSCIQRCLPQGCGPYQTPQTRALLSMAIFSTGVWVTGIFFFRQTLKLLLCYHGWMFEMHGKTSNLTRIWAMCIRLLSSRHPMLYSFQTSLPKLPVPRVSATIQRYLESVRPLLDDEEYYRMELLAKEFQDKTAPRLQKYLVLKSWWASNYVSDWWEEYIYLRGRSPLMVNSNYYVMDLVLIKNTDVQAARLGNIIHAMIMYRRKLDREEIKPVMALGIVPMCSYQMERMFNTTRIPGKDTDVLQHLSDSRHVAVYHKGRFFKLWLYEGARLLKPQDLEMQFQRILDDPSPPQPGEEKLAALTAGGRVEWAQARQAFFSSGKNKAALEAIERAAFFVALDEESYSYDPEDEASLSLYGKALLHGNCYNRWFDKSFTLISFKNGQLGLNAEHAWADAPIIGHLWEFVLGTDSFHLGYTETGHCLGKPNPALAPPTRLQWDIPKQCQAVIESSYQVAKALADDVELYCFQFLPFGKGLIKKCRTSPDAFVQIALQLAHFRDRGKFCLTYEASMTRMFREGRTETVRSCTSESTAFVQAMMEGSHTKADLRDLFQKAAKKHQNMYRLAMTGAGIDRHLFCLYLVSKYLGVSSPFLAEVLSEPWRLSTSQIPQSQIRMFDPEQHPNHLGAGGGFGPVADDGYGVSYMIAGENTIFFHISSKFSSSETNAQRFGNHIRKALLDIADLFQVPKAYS

[2] = molecular target: T2, Carnitine O-palmitoyltransferase 2, mitochondrial (Homo sapiens, UniProt P23786); assay: (§1) SUPPLEMENTARY: Inhibition of Carnitine palmitoyltransferase 2
T2 sequence (P23786 whole entry): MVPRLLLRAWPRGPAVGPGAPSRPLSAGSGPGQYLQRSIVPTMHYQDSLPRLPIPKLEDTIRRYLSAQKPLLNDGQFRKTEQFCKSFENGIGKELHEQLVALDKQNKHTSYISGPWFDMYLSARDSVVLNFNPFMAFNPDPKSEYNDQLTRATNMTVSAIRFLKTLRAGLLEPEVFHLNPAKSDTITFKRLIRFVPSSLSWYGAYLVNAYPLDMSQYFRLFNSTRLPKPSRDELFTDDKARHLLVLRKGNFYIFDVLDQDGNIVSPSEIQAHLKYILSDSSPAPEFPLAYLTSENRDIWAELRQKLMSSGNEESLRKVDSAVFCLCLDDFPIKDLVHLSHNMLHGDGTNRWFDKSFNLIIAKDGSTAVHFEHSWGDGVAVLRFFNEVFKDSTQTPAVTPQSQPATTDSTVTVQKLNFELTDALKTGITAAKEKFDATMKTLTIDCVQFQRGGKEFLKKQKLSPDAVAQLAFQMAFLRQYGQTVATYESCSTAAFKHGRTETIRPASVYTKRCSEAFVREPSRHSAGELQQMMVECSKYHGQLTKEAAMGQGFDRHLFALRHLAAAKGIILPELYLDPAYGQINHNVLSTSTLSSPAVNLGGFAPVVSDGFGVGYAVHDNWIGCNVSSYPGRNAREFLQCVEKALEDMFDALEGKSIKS

[3] = molecular target: T3, Carnitine O-palmitoyltransferase 2, mitochondrial (Rattus norvegicus, UniProt P18886); assay: as §1
T3 sequence (P18886 whole entry): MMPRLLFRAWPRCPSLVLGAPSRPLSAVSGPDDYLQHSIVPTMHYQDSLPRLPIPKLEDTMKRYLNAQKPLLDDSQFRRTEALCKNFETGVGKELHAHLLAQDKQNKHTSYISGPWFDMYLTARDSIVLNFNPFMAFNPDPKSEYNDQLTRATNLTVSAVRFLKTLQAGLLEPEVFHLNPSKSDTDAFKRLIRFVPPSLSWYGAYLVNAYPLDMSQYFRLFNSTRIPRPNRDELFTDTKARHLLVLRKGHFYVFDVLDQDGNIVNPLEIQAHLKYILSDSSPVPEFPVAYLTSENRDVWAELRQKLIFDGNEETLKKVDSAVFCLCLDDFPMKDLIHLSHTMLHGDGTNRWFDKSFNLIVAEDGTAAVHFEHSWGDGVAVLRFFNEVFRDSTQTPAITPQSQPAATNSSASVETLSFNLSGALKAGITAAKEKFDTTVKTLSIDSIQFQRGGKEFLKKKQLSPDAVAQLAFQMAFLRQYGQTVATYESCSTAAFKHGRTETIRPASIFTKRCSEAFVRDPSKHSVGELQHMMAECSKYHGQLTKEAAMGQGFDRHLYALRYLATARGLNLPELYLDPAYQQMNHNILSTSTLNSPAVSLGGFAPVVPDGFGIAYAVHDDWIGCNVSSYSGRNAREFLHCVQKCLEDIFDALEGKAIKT

[4] = molecular target: T4, Carnitine O-palmitoyltransferase 1, liver isoform (Homo sapiens, UniProt P50416); assay: (§2) SUPPLEMENTARY: Inhibition of Carnitine palmitoyltransferase 1, liver isoform
T4 sequence (P50416 whole entry): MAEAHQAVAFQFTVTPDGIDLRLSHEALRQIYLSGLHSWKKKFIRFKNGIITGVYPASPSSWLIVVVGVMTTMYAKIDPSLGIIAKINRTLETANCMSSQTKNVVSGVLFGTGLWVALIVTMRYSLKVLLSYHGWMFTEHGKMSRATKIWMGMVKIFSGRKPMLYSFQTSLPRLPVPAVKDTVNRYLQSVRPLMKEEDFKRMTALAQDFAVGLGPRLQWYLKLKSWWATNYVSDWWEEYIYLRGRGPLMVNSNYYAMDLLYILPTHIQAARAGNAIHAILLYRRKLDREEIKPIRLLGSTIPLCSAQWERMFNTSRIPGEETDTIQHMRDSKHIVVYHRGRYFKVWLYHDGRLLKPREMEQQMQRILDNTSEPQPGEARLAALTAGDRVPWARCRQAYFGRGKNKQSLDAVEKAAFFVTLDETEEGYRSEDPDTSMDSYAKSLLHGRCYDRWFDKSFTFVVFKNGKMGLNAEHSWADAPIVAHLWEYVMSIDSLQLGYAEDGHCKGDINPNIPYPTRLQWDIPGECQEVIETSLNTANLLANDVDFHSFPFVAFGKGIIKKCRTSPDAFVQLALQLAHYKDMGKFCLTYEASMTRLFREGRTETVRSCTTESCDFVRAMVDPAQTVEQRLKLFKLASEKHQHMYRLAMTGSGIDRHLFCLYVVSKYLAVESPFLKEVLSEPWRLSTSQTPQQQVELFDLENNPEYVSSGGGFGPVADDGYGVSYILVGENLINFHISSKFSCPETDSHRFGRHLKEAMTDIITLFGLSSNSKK

[5] = molecular target: T5, Carnitine O-palmitoyltransferase 1, liver isoform (Rattus norvegicus, UniProt P32198); assay: as §2
T5 sequence (P32198 whole entry): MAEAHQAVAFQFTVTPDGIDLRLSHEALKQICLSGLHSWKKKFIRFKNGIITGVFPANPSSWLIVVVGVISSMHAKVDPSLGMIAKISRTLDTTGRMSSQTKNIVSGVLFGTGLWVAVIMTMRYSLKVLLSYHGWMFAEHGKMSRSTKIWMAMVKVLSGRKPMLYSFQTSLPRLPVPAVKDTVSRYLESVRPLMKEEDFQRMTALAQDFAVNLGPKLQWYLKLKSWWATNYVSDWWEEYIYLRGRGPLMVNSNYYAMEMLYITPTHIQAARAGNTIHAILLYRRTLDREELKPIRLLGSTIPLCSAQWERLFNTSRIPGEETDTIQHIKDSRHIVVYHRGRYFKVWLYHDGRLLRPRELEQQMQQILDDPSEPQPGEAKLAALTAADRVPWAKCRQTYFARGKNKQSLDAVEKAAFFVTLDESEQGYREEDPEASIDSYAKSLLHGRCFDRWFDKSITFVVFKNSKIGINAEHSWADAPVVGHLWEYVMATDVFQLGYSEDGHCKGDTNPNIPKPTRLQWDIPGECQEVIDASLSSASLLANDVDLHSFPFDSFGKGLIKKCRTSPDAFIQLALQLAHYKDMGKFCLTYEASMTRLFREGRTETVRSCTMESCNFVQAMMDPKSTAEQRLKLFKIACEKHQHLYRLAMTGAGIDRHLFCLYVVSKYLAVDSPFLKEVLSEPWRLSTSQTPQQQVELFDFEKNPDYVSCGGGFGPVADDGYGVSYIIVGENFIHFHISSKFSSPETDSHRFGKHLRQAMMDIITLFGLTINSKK

[6] = SUPPLEMENTARY: Lyophilisation Solubility Assay (LYSA); type: physicochemical; conditions: read-out: Kinetic_solubility
[7] = SUPPLEMENTARY: Lipophilicity (log D) Determination by high-throughput shake-flask; type: physicochemical; conditions: octanol/water
[8] = SUPPLEMENTARY: PAMPA permeability assay; type: physicochemical; conditions: read-out: Permeability

Row | SMILES | IC50 [1] [nM] | IC50 [2] [nM] | IC50 [3] [nM] | IC50 [4] [nM] | IC50 [5] [nM] | solubility kinetic [6] [µg/mL] | logD [7] | Papp [8] [×10⁻⁶ cm/s]
1 | O=C(O)c1ccc(NC(=O)c2ccc(Cl)c(NS(=O)(=O)c3cc(Cl)cc(Cl)c3)c2)cc1 | 53100 | 25700 | > 100000 | 86.1 | 139 | 13 (≈ 26 µM) | 0.49 | 2.25
2 | COC[C@@H]1CCN(NC(=O)c2cccc(-c3n[nH]c([C@H]4CCCCN4C(=O)COc4ccccc4)n3)c2)C1 | > 100000 | 74300 | 73600 | 159 | 1300 | 229 (≈ 442 µM) | 2.45 | 3.31
3 | CC(=O)Nc1cc(F)cc(-c2n[nH]c([C@H]3CCCCN3C(=O)COc3ccccc3)n2)c1 | > 100000 | > 100000 | > 100000 | 26.4 | 65.6 | 37 (≈ 84.6 µM) | 3.22 | 1.69
4 | CCOC(=O)c1cn2ccc(-c3noc([C@H]4CCCCN4C(=O)COc4ccccc4)n3)cc2n1 | > 100000 | > 100000 | > 100000 | 68.1 | 459 | 22 (≈ 46.3 µM) | 2.92 | 1.99
5 | CC(=O)Nc1ccc(-c2noc([C@H]3CCCCN3C(=O)C#Cc3ccccc3)n2)cc1C(F)(F)F | > 100000 | > 100000 | > 100000 | 260 | 7980 | 1 (≈ 2.07 µM) | > 3 | 1.5
6 | O=C(COc1ccccc1)N1CCCC[C@@H]1c1nc(-c2ccc(S(=O)(=O)NCCO)cc2)no1 | > 100000 | 13400 | 49300 | 60.8 | 406 | 65 (≈ 134 µM) | 2.29 | 2.27
7 | O=C(O)c1ccc(NC(=O)c2ccc(NS(=O)(=O)c3cc(Cl)cc(Cl)c3)s2)cc1 | 4380 | > 100000 | > 100000 | 153 | 261 | 378 (≈ 802 µM) | -1.09 | 0.01
8 | O=C(COc1ccccc1)N1CCCC[C@@H]1c1noc(-c2cccc3[nH]cnc23)n1 | > 100000 | 84200 | > 100000 | 87.3 | 189 | 30 (≈ 74.4 µM) | 2.84 | 1.67
9 | Cc1cc(C)cc(S(=O)(=O)N2CCc3ccc(C(=O)Nc4ccc(CC(=O)O)cc4)cc32)c1 | 6790 | > 100000 | > 100000 | 187 | 133 | 5 (≈ 10.8 µM) | 2.42 | 4.05

Compounds with a lower IC50 [1], results first:

Row | IC50 [1] [nM] | IC50 [2] [nM] | IC50 [3] [nM] | IC50 [4] [nM] | IC50 [5] [nM] | solubility kinetic [6] [µg/mL] | logD [7] | Papp [8] [×10⁻⁶ cm/s] | SMILES
10 | 134 | > 100000 | > 100000 | 61 | 152 | 1 (≈ 1.84 µM) | 2.22 | 0.93 | COc1ccc(Cl)cc1S(=O)(=O)N1CCOc2ccc(C(=O)Nc3ccc(-c4noc(=O)[nH]4)cc3)cc21
11 | 3680 | 286 | 684 | 71 | 96.2 | 60 (≈ 116 µM) | 0.77 | 1.65 | COc1ccc(Cl)cc1S(=O)(=O)N1CCc2c(C)cc(C(=O)Nc3ccc(C(=O)O)c(F)c3)cc21
12 | 3650 | > 100000 | > 100000 | 272 | 206 | 502 (≈ 946 µM) | 0.68 | 2.08 | COc1ccc(Cl)cc1S(=O)(=O)N1CCOc2c(C)cc(C(=O)Nc3ccc(CC(=O)O)cc3)cc21
13 | 1310 | > 100000 | > 100000 | 22.3 | 15.2 | 48 (≈ 94.5 µM) | 0.17 | 3.25 | COc1ccc(Cl)cc1S(=O)(=O)N1CCc2ccc(C(=O)Nc3nc(CC(=O)O)cs3)cc21
14 | 628 | > 100000 | > 100000 | 156 | 514 | 70 (≈ 154 µM) | 0.92 | 3.15 | O=C(O)c1ccc(C(=O)Nc2nn(Cc3ccc(OC(F)F)cc3)c3ccc(F)cc23)cc1
